Experiments:
[1] = molecular target: T1, cIAP1 BIR3 (Homo sapiens, UniProt Q13490); test: Binding experiment of cIAP1 BIR3 (fluorescence polarization); conditions: 20 nM cIAP1 BIR3, 5 nM probe ARPFAQ-K(5-FAM)-NH2, 60 min
T1 construct: covering amino acids 258 to 363; GST; His; purchased RBC APT-11-370; host or cells: E. coli
Experimental: (§1) Buffer system for the test (a buffer for cIAP1 BIR3 or XIAP BIR3): 100 mM potassium phosphate, pH 7.5; 0.1% BSA; 0.005% Triton X-100; and 1% dimethyl sulfoxide.
(§2) Probe: ARPFAQ-K(5-FAM)-NH2.
cIAP1-BIR3-his: RBC Cat #APT-11-370, the BIR3 domain of human cIAP1 (covering amino acids 258 to 363; cIAP1 BIR3), as a GST-fusion protein expressed and purified from E. coli.
(§3) Reaction conditions: 5 nM ARPFAQ-K(5-FAM)-NH2, 20 nM cIAP1 BIR3 and 30 nM XIAP BIR3.
(§4) First, a fresh buffer for cIAP1 BIR3 or XIAP BIR3 was prepared, a cIAP1 BIR3 or XIAP BIR3 solution (2-fold diluted) was added thereto, and then a compound to be tested which had been dissolved in 100% DMSO was added into the buffer solution containing cIAP1 BIR3 or XIAP BIR3 by an acoustic technique. Thereafter, the probe (2-fold diluted) was added, and the resultant was mixed and incubated in the dark at room temperature for 60 minutes. The fluorescence polarization was measured and the mP value was calculated. Finally, the IC50 value was obtained.

[2] = system: MDA-MB-231 cells; test: In-vitro cell viability test (CellTiter-Glo, 7 days); format: cell-based; conditions: Homo sapiens, 168 h, 7 days incubation
Experimental: RPMI 1640 medium (Invitrogen-22400089); fetal bovine serum (Invitrogen-10099141); Trypsin, 0.05% (1×) with EDTA 4Na (Invitrogen-25300062); luminescent cell viability assay kit (Promega-G7573); Dulbecco's phosphate buffered saline (HyClone-SH30028.01B); and 384-well plate (Corning-6007680). Envision Multi-label Analyzer.
1. 30 μL of MDA-MB-231 cell suspension, which contained 250 MDA-MB-231 cells, was added into the wells of a 384-microwell plate.
2. 20 μL of a test compound (the test compounds were formulated at a high concentration of 10 μM, the test compounds were subjected to a 5-fold gradient dilution, and each compound was diluted to 10 concentration gradients) was added, and then the cell plate was put back into a carbon dioxide incubator to be incubated for 7 days.
3. The cell plate was kept flat at room temperature for 30 minutes.
4. 20 μL of a Promega CellTiter-Glo reagent was added into each well of the cell plate.
5. After 10 minutes, the Envision Multi-label Analyzer was used for data reading.

[3] = molecular target: T2, XIAP BIR3 (Homo sapiens, UniProt P98170); test: Binding experiment of XIAP BIR3 (fluorescence polarization); conditions: 30 nM XIAP BIR3, 5 nM probe ARPFAQ-K(5-FAM)-NH2, 60 min
T2 construct: covering amino acids 255 to 356; GST; His; purchased RBC APT-11-374; host or cells: E. coli
T2 sequence (P98170 255-356): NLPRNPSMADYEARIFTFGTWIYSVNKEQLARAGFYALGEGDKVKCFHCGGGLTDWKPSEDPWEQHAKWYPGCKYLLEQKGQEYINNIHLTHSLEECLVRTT
Experimental: as §1, §2
XIAP-BIR3-his: RBC Cat #APT-11-374, the BIR3 domain of XIAP (covering amino acids 255 to 356; XIAP BIR3), as a GST-fusion protein expressed and purified from E. coli.
as §3, §4

T1 sequence (Q13490 258-363): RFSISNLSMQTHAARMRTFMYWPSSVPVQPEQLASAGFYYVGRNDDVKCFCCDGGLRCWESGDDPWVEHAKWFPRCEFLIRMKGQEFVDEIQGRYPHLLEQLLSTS

Question: With `CN[C@@H](C)C(=O)N[C@H](C(=O)N1CCC[C@H]1Cn1cc(C(C)=O)c2cc(F)ccc21)C1CCCCC1` [Example 1] as the compound, how does the IC50 [1] read?
Answer: 3.7 nM

Question: What about the IC50 [2] of the same compound?
Answer: 70 nM

Question: What about the IC50 [3] of the same compound?
Answer: 74.7 nM

Question: Which results are given for `CN[C@@H](C)C(=O)N[C@H](C(=O)N1CCC[C@H]1Cn1cc(C(C)=O)c2cc(C(F)(F)F)ccc21)C1CCCCC1` [Example 3]?
Answer: IC50 [1]: 1 nM; IC50 [2]: 16 nM; IC50 [3]: 18.1 nM

Question: For `CN[C@@H](C)C(=O)N[C@H](C(=O)N1CCC[C@H]1Cn1cc(C(C)=O)c2c(Cl)cccc21)C1CCCCC1` [Example 4], which IC50 [1] is on record?
Answer: 2.6 nM

Question: And the IC50 [2]?
Answer: 220 nM

Question: What about the IC50 [3] of the same compound?
Answer: 97 nM

Question: Which results are given for `CN[C@@H](C)C(=O)N[C@H](C(=O)N1CCC[C@H]1Cn1cc(C(C)=O)c2ccc(Cl)cc21)C1CCCCC1` [Example 5]?
Answer: IC50 [1]: 2.6 nM; IC50 [2]: 75 nM; IC50 [3]: 95.9 nM

Question: `CN[C@@H](C)C(=O)N[C@H](C(=O)N1CCC[C@H]1Cn1cc(C(C)=O)c2cccc(Cl)c21)C1CCCCC1` [Example 6] was tested. Which IC50 [1] did it give?
Answer: 58.3 nM

Question: What about the IC50 [2] of the same compound?
Answer: 497 nM

Question: What about the IC50 [3] of the same compound?
Answer: 9.3 nM

Question: For `CN[C@@H](C)C(=O)N[C@H](C(=O)N1CCC[C@H]1Cn1cc(C(C)=O)c2cc(Br)ccc21)C1CCCCC1` [Example 7], which IC50 [1] is on record?
Answer: 4.9 nM

Question: And the IC50 [2]?
Answer: 16.6 nM

Question: What about the IC50 [3] of the same compound?
Answer: 45 nM

Question: For `CN[C@@H](C)C(=O)N[C@H](C(=O)N1CCC[C@H]1Cn1cc(C(C)=O)c2cc(Cl)c(Cl)cc21)C1CCCCC1` [Example 8], which IC50 [1] is on record?
Answer: 5.6 nM

Question: What about the IC50 [2] of the same compound?
Answer: 75 nM

Question: And the IC50 [3]?
Answer: 40.3 nM

Question: For `CN[C@@H](C)C(=O)N[C@H](C(=O)N1CCC[C@H]1Cn1cc(C(C)=O)c2cc(Cl)c(F)cc21)C1CCCCC1` [Example 9], which IC50 [1] is on record?
Answer: 5.7 nM

Question: What about the IC50 [2] of the same compound?
Answer: 26 nM

Question: What about the IC50 [3] of the same compound?
Answer: 20 nM

Question: Which results are given for `CN[C@@H](C)C(=O)N[C@H](C(=O)N1CCC[C@H]1Cn1cc(C(C)=O)c2c(F)c(Cl)ccc21)C1CCCCC1` [Example 10]?
Answer: IC50 [1]: 4.5 nM; IC50 [2]: 32.4 nM; IC50 [3]: 27.2 nM

Question: What does the source list for `CN[C@@H](C)C(=O)N[C@H](C(=O)N1CCC[C@H]1Cn1cc(C(C)=O)c2cc(OC(F)(F)F)ccc21)C1CCCCC1` [Example 11]?
Answer: IC50 [1]: 5.2 nM; IC50 [2]: 74.8 nM; IC50 [3]: 139 nM

Question: For `CN[C@@H](C)C(=O)N[C@H](C(=O)N1CCC[C@H]1Cn1c(C)c(C(C)=O)c2cc(Cl)ccc21)C1CCCCC1` [Example 13], which IC50 [1] is on record?
Answer: 5 nM

Question: And the IC50 [2]?
Answer: 44.3 nM

Question: What about the IC50 [3] of the same compound?
Answer: 30.6 nM

Question: What does the source list for `CN[C@@H](C)C(=O)N[C@H](C(=O)N1CCC[C@H]1Cn1nc(C(C)=O)c2cc(Cl)ccc21)C1CCCCC1` [Example 14]?
Answer: IC50 [1]: 6.2 nM; IC50 [2]: 57.7 nM; IC50 [3]: 49.9 nM

Question: Which results are given for `CN[C@@H](C)C(=O)N[C@H](C(=O)N1CCC[C@H]1Cn1nc(C(C)=O)c2cc(F)ccc21)C1CCCCC1` [Example 15]?
Answer: IC50 [1]: 4 nM; IC50 [2]: 93 nM; IC50 [3]: 258 nM

Question: Which IC50 [1] does the source give for `CN[C@@H](C)C(=O)N[C@H](C(=O)N1CCC[C@H]1Cn1cc(C(C)=O)c2cc(Cl)cnc21)C1CCCCC1` [Example 16] here?
Answer: 8.4 nM

Question: And the IC50 [2]?
Answer: 109 nM

Question: And the IC50 [3]?
Answer: 346 nM

Question: For `CN[C@@H](C)C(=O)N[C@H](C(=O)N1CCC[C@H]1Cn1cc(C#N)c2cc(F)ccc21)C1CCCCC1` [Example 17], which IC50 [1] is on record?
Answer: 1.9 nM

Question: And the IC50 [2]?
Answer: 79 nM

Question: And the IC50 [3]?
Answer: 80.7 nM

Question: For `CN[C@@H](C)C(=O)N[C@H](C(=O)N1CCC[C@H]1Cn1cc(C#N)c2cc(Cl)ccc21)C1CCCCC1` [Example 18], which IC50 [1] is on record?
Answer: 5.1 nM

Question: What about the IC50 [2] of the same compound?
Answer: 22.5 nM

Question: And the IC50 [3]?
Answer: 42.5 nM

Question: `CN[C@@H](C)C(=O)N[C@H](C(=O)N1CCC[C@H]1Cn1nc(C#N)c2cc(Cl)ccc21)C1CCCCC1` [Example 19] was tested. Which IC50 [1] did it give?
Answer: 4.6 nM

Question: And the IC50 [2]?
Answer: 43.1 nM

Question: And the IC50 [3]?
Answer: 129 nM

Question: `CN[C@@H](C)C(=O)N[C@H](C(=O)N1CCC[C@H]1Cn1cc(S(C)(=O)=O)c2cc(F)ccc21)C1CCCCC1` [Example 20] was tested. Which IC50 [1] did it give?
Answer: 1.1 nM

Question: And the IC50 [2]?
Answer: 75 nM

Question: And the IC50 [3]?
Answer: 53.9 nM

Question: Which IC50 [1] does the source give for `CN[C@@H](C)C(=O)N[C@H](C(=O)N1CCC[C@H]1Cn1cc(S(C)(=O)=O)c2cc(Cl)ccc21)C1CCCCC1` [Example 21] here?
Answer: 4.2 nM

Question: What about the IC50 [2] of the same compound?
Answer: 16.4 nM

Question: What about the IC50 [3] of the same compound?
Answer: 37.4 nM

Question: Which results are given for `CN[C@@H](C)C(=O)N[C@H](C(=O)N1CCC[C@H]1Cn1cc(C(N)=O)c2cc(F)ccc21)C1CCCCC1` [Example 22]?
Answer: IC50 [1]: 3 nM; IC50 [2]: 85 nM; IC50 [3]: 42 nM

Question: Which IC50 [1] does the source give for `CN[C@@H](C)C(=O)N[C@H](C(=O)N1CCC[C@H]1Cn1cc(C(=O)N(C)C)c2cc(Cl)ccc21)C1CCCCC1` [Example 23] here?
Answer: 4.6 nM

Question: And the IC50 [2]?
Answer: 45.2 nM

Question: And the IC50 [3]?
Answer: 21.3 nM

Question: `CN[C@@H](C)C(=O)N[C@H](C(=O)N1CCC[C@H]1Cn1cc(C(=O)C(C)C)c2cc(Cl)ccc21)C1CCCCC1` [Example 24] was tested. Which IC50 [1] did it give?
Answer: 4.1 nM

Question: What about the IC50 [2] of the same compound?
Answer: 73 nM

Question: And the IC50 [3]?
Answer: 19.2 nM

Question: What does the source list for `CN[C@@H](C)C(=O)N[C@H](C(=O)N1CCC[C@H]1Cn1cc(-c2ccccc2C)c2cc(F)ccc21)C1CCCCC1` [Example 25]?
Answer: IC50 [1]: 6.8 nM; IC50 [2]: 1150 nM; IC50 [3]: 208 nM

Question: How did the IC50 [1] turn out when `CN[C@@H](C)C(=O)N[C@H](C(=O)N1CCC[C@H]1Cn1cc(-c2ccnn2C)c2cc(F)ccc21)C1CCCCC1` [Example 26] was run?
Answer: 1.1 nM

Question: What about the IC50 [2] of the same compound?
Answer: 181 nM

Question: And the IC50 [3]?
Answer: 60 nM

Question: How did the IC50 [1] turn out when `CN[C@@H](C)C(=O)N[C@H](C(=O)N1CCC[C@H]1Cn1cc(-c2ccnn2C)c2cc(Cl)ccc21)C1CCCCC1` [Example 27] was run?
Answer: 4.4 nM

Question: What about the IC50 [2] of the same compound?
Answer: 282 nM

Question: What about the IC50 [3] of the same compound?
Answer: 46.4 nM

Question: How did the IC50 [1] turn out when `CN[C@@H](C)C(=O)N[C@H](C(=O)N1CCC[C@H]1Cn1cc(N2CCCC2=O)c2cc(Cl)ccc21)C1CCCCC1` [Example 28] was run?
Answer: 5.2 nM

Question: What about the IC50 [2] of the same compound?
Answer: 36.7 nM

Question: And the IC50 [3]?
Answer: 27.3 nM

Question: For `CN[C@@H](C)C(=O)N[C@H](C(=O)N1CCC[C@H]1Cn1cc(N2CCN(C)C2=O)c2cc(Cl)ccc21)C1CCCCC1` [Example 29], which IC50 [1] is on record?
Answer: 6.1 nM

Question: What about the IC50 [2] of the same compound?
Answer: 134 nM

Question: What about the IC50 [3] of the same compound?
Answer: 31.4 nM

Question: Which IC50 [1] does the source give for `CN[C@@H](C)C(=O)N[C@H](C(=O)N1CCC[C@H]1Cn1cc(N2CCOC2=O)c2cc(Cl)ccc21)C1CCCCC1` [Example 30] here?
Answer: 4.4 nM

Question: And the IC50 [2]?
Answer: 47.6 nM

Question: And the IC50 [3]?
Answer: 21.6 nM

Question: How did the IC50 [1] turn out when `CN[C@@H](C)C(=O)N[C@H](C(=O)N1C[C@@H](Oc2ccccc2)C[C@H]1Cn1cc(C(C)=O)c2cc(F)ccc21)C1CCCCC1` [Example 31] was run?
Answer: 3.7 nM

Question: And the IC50 [2]?
Answer: 1460 nM

Question: What about the IC50 [3] of the same compound?
Answer: 49.1 nM
